Experimental data published in patent US9775902B2, “Compounds and methods for treatment of stroke” (FIBROGEN, INC, priority 2006, dated 2017).

Key:
Assay type in all cases: in vivo
[1] = system: Wistar rats, transient occlusion of the MCA; test: Rat tMCAO, 28 days: lesion area, neuronal degeneration, brain tissue loss (Fluoro-Jade B); settings: 60 mg/kg p.o. at 1.5 and 24 hours after reperfusion then 30 mg/kg every other day, vs non-treated control
Experimental: In another series of experiments, the long term effect of administration of compounds of the present invention on stroke and brain tissue damage associated with stroke was examined. For these studies, the effect of compounds of the present invention on lesion area, neuronal degeneration, and brain tissue loss following stroke was examined 28 days after transient MCA occlusion. Wistar rats (320 g) were subjected to transient occlusion of the MCA as described above. Compound F (60 mg/kg) was administered by oral gavage at 1.5 hours and 24 hours after reperfusion and subsequently every other day (using a dose of 30 mk/kg, p.o.) for 28 days. Twenty-eight days after transient MCA occlusion, animals were anesthetized with 3% isoflurane in oxygen and transcardially perfused with 100 ml of 0.9% saline solution (Hospira Inc, Lake Forest Ill.). Brains were removed and sliced into 6 coronal sections, 2 mm thick, and embedded in cryomold standard (Sakura Finetek, Ca) using O.C.T. embedded medium (Sakura Finetek, Ca). […]
Changes in lesion area were measured as follows. […] Lesion area was determined by measuring the infarcted (i.e., non-Fluoro-Jade B stained) areas of each brain section. […]
Changes in neuronal degeneration were measured as follows. […] Fluoro-Jade B positive cells observed in the digital photographs were quantified using Image Pro-Plus image analysis software (Media Cybernetics, Silver Spring Md.). Extent of neuronal degeneration was determined by comparing the total number of Fluoro-Jade B positive cells per mm^2 area of the treated group to the same area of the corresponding vehicle-control group. The distance of each coronal section from bregma was determined.
Changes in area of brain tissue loss were measured as follows. […] Area of brain tissue loss, associated with the ischemic insult, was measured by […]. A percentage value was then determined by dividing the area of brain tissue loss associated with the stroke by the total area of the contralateral hemisphere. […]

[2] = system: Wistar rats, transient MCA occlusion; test: Tactile adhesion test in rat tMCAO; settings: 60 mg/kg p.o. at 1.5 and 24 hours after reperfusion then 30 mg/kg every other day, day 7, vs non-treated control, FIG. 4
Description: (§1) Rats subjected to cerebral ischemia following transient MCA occlusion have deficits in sensorimotor and neuromuscular function which can be assessed using various behavioral tests. (See, e.g., Aronowski et al. J Cereb Blood Flow Metab (1996) 16:705-713; and Colbourne et al. J Cereb Blood Flow Metab (2000) 20:1702-1708.) The effect of compounds of the present invention on various functional impairments associated with stroke was examined using an animal model of ischemic stroke. In this series of experiments, male Wistar rats (300 g) underwent behavioral testing after transient MCA occlusion. One day prior to MCAO surgery, the rats were trained to the grip strength meter and subjected to tactile adhesion testing. Following their training, rats were subjected to transient occlusion of the MCA in the same manner described in Example 10 above. Compound F (60 mg/kg, p.o.) was administered by oral gavage at 1.5 hours and 24 hours after reperfusion and then every other day (with a dose of 30 mk/kg, p.o.) for 28 days. […]
A tactile adhesion test was used to measure sensorimotor deficits and function. […] The latency (i.e. time required for the animal to remove each stimulus from the forelimbs) was recorded for ipsilateral (right) and contralateral (left) forelimbs separately. Three trials separated by 5 minutes were carried out for each rat and mean latency values in seconds (sec) were recorded.

[3] = system: Wistar rats, transient MCA occlusion; test: Grip strength test in rat tMCAO; settings: 60 mg/kg p.o. at 1.5 and 24 hours after reperfusion then 30 mg/kg every other day, days 7, 14, 21, and 28, vs non-treated control, FIG. 5
Description: as §1
Grip strength was used to assess neuromuscular function. Rat grip strength was determined using a standard rodent grip strength meter (Columbus Instruments, Columbus Ohio). […] Grip strength was assessed with a gentle consistent pull in the caudal direction. The digital reading on the meter was recorded and the mean of three trials reported. […]

COc1ccc(Oc2ccc3c(O)c(C(=O)NCC(=O)O)ncc3c2)cc1 [Compound F, {[4-Hydroxy-7-(4-methoxy-phenoxy)-isoquinoline-3-carbonyl]-amino}-acetic acid]
lesion area ([1]; FIG. 1): reduced | neuronal degeneration (Fluoro-Jade B positive cells) ([1]; FIG. 2): reduced | brain tissue loss ([1]; FIG. 3): reduced | latency in the tactile adhesion test [2]: significantly improved | grip strength [3]: significantly improved
